# Results from ChEMBL document CHEMBL4507265 (2021).
# Key:
# [1] = target: Dual specificity mitogen-activated protein kinase kinase 2 (Homo sapiens) (UniProt P36507); conditions: Compound concentration 1000.0 nM
# [2] = target: Serine/threonine-protein kinase NLK (Homo sapiens) (UniProt Q9UBE8); conditions: Compound concentration 1000.0 nM
# [3] = target: Sigma non-opioid intracellular receptor 1 (Homo sapiens) (UniProt Q99720); conditions: Compound concentration 10.0 uM
# [4] = target: Ribosomal protein S6 kinase alpha-5 (Homo sapiens) (UniProt O75582); conditions: Compound concentration 1000.0 nM
# [5] = target: High affinity nerve growth factor receptor (Homo sapiens) (UniProt P04629); conditions: Compound concentration 1000.0 nM
# [6] = target: Activin receptor type-2A (Homo sapiens) (UniProt P27037); conditions: Compound concentration 1000.0 nM
# [7] = target: T1, Alpha-1D adrenergic receptor (Homo sapiens) (UniProt P25100); conditions: Compound concentration 10.0 uM
# T1 sequence (whole entry): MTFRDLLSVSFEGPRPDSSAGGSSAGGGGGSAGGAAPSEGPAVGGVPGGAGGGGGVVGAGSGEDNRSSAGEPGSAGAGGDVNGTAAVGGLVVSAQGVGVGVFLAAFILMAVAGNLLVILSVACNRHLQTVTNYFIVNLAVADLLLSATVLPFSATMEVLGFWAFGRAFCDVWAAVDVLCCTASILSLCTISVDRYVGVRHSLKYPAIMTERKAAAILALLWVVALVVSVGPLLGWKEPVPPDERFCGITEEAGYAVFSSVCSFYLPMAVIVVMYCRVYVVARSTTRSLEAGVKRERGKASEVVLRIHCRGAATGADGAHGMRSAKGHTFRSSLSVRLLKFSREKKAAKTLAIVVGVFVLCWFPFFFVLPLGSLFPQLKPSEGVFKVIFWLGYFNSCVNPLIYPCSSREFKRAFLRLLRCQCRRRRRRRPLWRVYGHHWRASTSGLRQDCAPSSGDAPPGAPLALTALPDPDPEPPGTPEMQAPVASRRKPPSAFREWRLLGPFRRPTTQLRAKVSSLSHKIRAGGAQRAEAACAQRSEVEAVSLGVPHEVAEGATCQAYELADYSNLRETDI
# [8] = target: 3-phosphoinositide-dependent protein kinase 1 (Homo sapiens) (UniProt O15530); conditions: Compound concentration 1000.0 nM
# [9] = target: Mitogen-activated protein kinase kinase kinase 4 (Homo sapiens) (UniProt Q9Y6R4); conditions: Compound concentration 1000.0 nM
# [10] = tested on: Receptor-type tyrosine-protein kinase FLT3 (Homo sapiens), P36888 [N841I]; conditions: Compound concentration 1000.0 nM
# [11] = target: Aurora kinase B (Homo sapiens) (UniProt Q96GD4); conditions: Compound concentration 1000.0 nM
# [12] = tested on: Epidermal growth factor receptor (Homo sapiens), P00533 [G719S]; conditions: Compound concentration 1000.0 nM
# [13] = target: Cyclin-dependent kinase 18 (Homo sapiens) (UniProt Q07002); conditions: Compound concentration 1000.0 nM
# [14] = target: Ribosomal protein S6 kinase alpha-2 (Homo sapiens) (UniProt Q15349); conditions: Compound concentration 1000.0 nM
# [15] = target: Rho-associated protein kinase 1 (Homo sapiens) (UniProt Q13464); conditions: Compound concentration 1000.0 nM
# [16] = target: Insulin-like growth factor 1 receptor (Homo sapiens) (UniProt P08069); conditions: Compound concentration 1000.0 nM
# [17] = target: Tyrosine-protein kinase Fgr (Homo sapiens) (UniProt P09769); conditions: Compound concentration 1000.0 nM
# [18] = target: Cyclin-dependent kinase-like 2 (Homo sapiens) (UniProt Q92772); conditions: Compound concentration 1000.0 nM
# [19] = target: Mitogen-activated protein kinase 10 (Homo sapiens) (UniProt P53779); conditions: Compound concentration 1000.0 nM
# [20] = target: Calcium/calmodulin-dependent protein kinase kinase 1 (Homo sapiens) (UniProt Q8N5S9); conditions: Compound concentration 1000.0 nM
# Calcium/calmodulin-dependent protein kinase kinase 1 (Homo sapiens), sequence (Q8N5S9 whole entry, looked up): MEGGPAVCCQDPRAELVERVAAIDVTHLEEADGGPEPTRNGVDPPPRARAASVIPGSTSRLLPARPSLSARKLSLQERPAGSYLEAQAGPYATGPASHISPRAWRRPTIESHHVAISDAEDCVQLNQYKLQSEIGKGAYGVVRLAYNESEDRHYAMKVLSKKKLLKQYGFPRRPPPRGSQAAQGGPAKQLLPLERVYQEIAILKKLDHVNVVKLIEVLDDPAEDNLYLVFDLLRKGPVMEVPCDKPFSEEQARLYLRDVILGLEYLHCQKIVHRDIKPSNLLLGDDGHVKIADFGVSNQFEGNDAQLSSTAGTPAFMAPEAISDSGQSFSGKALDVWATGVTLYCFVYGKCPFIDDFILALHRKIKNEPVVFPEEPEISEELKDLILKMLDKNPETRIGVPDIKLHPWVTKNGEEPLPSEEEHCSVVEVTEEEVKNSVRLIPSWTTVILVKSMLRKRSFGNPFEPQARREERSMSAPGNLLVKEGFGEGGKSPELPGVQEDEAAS
# [21] = target: Fibroblast growth factor receptor 4 (Homo sapiens) (UniProt P22455); conditions: Compound concentration 1000.0 nM
# [22] = target: NT-3 growth factor receptor (Homo sapiens) (UniProt Q16288); conditions: Compound concentration 1000.0 nM
# [23] = target: Myosin light chain kinase family member 4 (Homo sapiens) (UniProt Q86YV6); conditions: Compound concentration 1000.0 nM
# [24] = target: Mitogen-activated protein kinase 1 (Homo sapiens) (UniProt P28482); conditions: Compound concentration 1000.0 nM
# [25] = target: Proto-oncogene tyrosine-protein kinase ROS (Homo sapiens) (UniProt P08922); conditions: Compound concentration 1000.0 nM
# [26] = target: Serine/threonine-protein kinase/endoribonuclease IRE1 (Homo sapiens) (UniProt O75460); conditions: Compound concentration 1000.0 nM
# [27] = target: Dual serine/threonine and tyrosine protein kinase (Homo sapiens) (UniProt Q6XUX3); conditions: Compound concentration 1000.0 nM
# [28] = target: Serine/threonine-protein kinase SIK3 (Homo sapiens) (UniProt Q9Y2K2); conditions: Compound concentration 1000.0 nM
# Serine/threonine-protein kinase SIK3 (Homo sapiens), sequence (Q9Y2K2 whole entry, looked up): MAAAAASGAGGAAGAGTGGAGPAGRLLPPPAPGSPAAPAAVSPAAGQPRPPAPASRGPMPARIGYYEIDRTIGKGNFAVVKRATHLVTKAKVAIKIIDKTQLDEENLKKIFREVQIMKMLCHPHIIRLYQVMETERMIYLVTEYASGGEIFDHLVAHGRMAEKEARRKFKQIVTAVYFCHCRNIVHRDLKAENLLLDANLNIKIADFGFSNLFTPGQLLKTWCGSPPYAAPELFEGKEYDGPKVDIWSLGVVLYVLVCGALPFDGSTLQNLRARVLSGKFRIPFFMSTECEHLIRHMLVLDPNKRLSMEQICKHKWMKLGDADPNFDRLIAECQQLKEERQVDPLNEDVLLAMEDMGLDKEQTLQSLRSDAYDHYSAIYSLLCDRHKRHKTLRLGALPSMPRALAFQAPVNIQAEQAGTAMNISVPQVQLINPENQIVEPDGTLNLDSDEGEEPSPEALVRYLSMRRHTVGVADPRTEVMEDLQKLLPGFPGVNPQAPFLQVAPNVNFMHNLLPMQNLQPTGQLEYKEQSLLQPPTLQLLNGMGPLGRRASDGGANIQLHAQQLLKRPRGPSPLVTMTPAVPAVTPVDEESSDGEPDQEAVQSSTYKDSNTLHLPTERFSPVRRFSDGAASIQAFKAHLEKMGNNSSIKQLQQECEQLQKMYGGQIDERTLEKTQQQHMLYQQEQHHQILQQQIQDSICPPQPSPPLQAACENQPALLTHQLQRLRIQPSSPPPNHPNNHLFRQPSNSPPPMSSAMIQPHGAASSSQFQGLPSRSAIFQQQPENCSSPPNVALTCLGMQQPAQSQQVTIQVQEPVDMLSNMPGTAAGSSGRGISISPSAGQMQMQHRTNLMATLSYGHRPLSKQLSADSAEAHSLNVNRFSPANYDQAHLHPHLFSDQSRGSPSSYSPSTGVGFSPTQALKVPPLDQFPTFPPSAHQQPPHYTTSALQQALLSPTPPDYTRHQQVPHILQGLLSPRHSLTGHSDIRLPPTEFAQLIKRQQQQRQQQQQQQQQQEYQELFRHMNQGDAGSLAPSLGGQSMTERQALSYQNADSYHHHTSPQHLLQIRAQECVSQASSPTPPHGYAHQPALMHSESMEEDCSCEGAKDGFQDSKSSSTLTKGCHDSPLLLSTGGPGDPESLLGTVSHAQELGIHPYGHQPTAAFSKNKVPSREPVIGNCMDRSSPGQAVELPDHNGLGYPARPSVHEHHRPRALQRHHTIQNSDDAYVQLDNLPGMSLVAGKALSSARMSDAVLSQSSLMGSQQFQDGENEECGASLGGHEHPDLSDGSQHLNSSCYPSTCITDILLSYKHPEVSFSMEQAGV
# [29] = target: AP2-associated protein kinase 1 (Homo sapiens) (UniProt Q2M2I8); conditions: Compound concentration 1000.0 nM
# [30] = target: Muscarinic acetylcholine receptor M4 (Homo sapiens) (UniProt P08173); conditions: Compound concentration 10.0 uM
# [31] = tested on: Fibroblast growth factor receptor 3 (Homo sapiens), P22607 [G697C]; conditions: Compound concentration 1000.0 nM
# Fibroblast growth factor receptor 3 (Homo sapiens), P22607 [G697C], sequence (P22607 whole entry G697C): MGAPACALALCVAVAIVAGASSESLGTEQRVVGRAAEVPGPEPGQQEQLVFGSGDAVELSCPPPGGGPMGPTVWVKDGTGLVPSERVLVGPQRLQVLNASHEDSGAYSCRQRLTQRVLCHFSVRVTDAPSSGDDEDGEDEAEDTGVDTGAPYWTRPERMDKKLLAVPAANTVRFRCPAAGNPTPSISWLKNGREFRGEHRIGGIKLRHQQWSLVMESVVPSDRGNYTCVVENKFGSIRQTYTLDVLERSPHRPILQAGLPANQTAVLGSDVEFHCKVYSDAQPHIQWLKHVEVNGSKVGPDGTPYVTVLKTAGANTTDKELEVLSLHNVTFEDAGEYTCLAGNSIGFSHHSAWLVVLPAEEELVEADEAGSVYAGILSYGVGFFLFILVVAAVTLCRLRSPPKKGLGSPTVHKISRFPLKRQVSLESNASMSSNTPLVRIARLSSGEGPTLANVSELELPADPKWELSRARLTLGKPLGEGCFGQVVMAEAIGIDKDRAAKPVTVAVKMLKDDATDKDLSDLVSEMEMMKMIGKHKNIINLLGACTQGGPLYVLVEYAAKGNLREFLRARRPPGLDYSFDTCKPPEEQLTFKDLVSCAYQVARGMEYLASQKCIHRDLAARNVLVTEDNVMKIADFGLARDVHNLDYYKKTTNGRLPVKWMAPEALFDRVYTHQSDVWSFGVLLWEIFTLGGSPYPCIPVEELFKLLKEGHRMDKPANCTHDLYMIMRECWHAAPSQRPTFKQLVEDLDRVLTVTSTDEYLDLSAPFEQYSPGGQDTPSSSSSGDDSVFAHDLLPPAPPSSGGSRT
# [32] = target: Calcium/calmodulin-dependent protein kinase type II subunit delta (Homo sapiens) (UniProt Q13557); conditions: Compound concentration 1000.0 nM
# [33] = target: Misshapen-like kinase 1 (Homo sapiens) (UniProt Q8N4C8); conditions: Compound concentration 1000.0 nM
# [34] = target: Serine/threonine-protein kinase 26 (Homo sapiens) (UniProt Q9P289); conditions: Compound concentration 1000.0 nM
# [35] = target: Macrophage-stimulating protein receptor (Homo sapiens) (UniProt Q04912); conditions: Compound concentration 1000.0 nM
# [36] = target: Tyrosine-protein kinase JAK1 (Homo sapiens) (UniProt P23458); conditions: Compound concentration 1000.0 nM
# Tyrosine-protein kinase JAK1 (Homo sapiens), sequence (P23458 whole entry, canonical isoform): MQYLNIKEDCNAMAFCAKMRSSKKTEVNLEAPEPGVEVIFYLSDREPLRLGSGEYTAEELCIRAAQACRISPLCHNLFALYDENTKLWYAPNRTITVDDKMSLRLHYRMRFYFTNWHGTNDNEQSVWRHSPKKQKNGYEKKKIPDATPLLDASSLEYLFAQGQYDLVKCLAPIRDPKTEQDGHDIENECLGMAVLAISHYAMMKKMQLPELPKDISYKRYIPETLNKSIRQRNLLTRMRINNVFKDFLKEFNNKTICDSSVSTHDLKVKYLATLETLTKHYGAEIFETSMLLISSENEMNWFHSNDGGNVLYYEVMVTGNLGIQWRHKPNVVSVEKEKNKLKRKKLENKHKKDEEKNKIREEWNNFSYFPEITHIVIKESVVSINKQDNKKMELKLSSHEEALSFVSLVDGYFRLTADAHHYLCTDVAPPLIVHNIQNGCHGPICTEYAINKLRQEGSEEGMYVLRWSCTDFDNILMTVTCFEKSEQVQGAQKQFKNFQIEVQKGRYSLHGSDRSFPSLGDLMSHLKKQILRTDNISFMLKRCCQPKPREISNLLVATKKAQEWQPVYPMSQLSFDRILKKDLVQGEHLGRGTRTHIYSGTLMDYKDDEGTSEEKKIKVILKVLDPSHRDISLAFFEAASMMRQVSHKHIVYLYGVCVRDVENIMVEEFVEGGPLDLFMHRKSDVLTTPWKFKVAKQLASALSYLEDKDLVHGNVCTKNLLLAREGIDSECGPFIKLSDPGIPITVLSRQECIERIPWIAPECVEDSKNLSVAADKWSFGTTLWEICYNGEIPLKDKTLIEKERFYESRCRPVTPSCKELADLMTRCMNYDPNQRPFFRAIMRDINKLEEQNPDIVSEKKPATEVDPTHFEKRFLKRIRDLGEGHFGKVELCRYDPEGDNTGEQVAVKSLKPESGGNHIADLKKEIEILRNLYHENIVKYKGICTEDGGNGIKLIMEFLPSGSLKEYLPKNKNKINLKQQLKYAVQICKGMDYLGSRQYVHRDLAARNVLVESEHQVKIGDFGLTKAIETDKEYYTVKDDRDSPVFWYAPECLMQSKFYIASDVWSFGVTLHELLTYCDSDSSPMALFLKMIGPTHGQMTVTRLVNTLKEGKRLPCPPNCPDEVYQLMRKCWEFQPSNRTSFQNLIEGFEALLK
# [37] = target: Casein kinase I isoform alpha-like (Homo sapiens) (UniProt Q8N752); conditions: Compound concentration 1000.0 nM
# Casein kinase I isoform alpha-like (Homo sapiens), sequence (Q8N752 whole entry, canonical isoform): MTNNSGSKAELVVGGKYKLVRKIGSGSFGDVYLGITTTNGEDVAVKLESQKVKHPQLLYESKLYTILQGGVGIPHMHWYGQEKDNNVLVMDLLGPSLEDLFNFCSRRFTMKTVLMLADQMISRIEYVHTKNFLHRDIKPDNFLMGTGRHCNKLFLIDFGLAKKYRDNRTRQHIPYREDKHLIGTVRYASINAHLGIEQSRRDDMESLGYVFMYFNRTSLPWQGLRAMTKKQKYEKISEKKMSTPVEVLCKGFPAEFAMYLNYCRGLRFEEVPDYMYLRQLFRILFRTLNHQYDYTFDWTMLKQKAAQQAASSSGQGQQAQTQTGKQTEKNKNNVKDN
# [38] = target: Mitogen-activated protein kinase kinase kinase 11 (Homo sapiens) (UniProt Q16584); conditions: Compound concentration 1000.0 nM
# Mitogen-activated protein kinase kinase kinase 11 (Homo sapiens), sequence (Q16584 whole entry, looked up): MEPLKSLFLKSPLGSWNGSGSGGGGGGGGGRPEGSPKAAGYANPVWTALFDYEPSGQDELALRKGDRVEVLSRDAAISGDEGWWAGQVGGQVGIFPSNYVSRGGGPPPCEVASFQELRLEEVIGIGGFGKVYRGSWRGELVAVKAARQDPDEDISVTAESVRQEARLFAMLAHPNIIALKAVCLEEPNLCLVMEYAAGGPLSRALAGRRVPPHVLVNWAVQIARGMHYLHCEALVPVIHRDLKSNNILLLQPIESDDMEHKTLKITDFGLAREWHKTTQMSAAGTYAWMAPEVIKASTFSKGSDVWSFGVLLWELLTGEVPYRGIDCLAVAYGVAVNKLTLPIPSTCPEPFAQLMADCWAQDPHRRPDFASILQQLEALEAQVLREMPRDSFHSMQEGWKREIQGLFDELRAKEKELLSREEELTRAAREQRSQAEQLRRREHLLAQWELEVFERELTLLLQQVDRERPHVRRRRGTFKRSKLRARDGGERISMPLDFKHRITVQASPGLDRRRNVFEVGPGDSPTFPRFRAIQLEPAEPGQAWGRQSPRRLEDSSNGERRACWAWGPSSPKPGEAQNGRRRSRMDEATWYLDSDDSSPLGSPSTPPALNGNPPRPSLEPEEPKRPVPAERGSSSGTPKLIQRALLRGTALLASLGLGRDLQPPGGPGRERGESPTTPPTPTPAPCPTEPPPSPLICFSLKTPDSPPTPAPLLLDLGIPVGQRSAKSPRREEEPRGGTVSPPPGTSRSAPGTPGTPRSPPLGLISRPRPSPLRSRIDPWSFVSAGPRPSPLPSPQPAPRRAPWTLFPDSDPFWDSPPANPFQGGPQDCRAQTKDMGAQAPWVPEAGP
Structure (SMILES),residual activity [1],residual activity [2],inhibition [3],residual activity [4],residual activity [5],residual activity [6],inhibition [7],residual activity [8],residual activity [9],residual activity [10],residual activity [11],residual activity [12],residual activity [13],residual activity [14],residual activity [15],residual activity [16],residual activity [17],residual activity [18],residual activity [19],residual activity [20],other results
NS(=O)(=O)c1cc(NC(=O)C2(c3ccccc3Cl)CC2)ccc1Oc1cccc(Cl)c1 [BAY-207],89%,68%,18.6%,100%,100%,96%,6.88%,85%,94%,32%,84%,98%,69%,91%,100%,80%,54%,94%,100%,100%,residual activity [21]: 100%; residual activity [22]: 88%; residual activity [23]: 94%; residual activity [24]: 75%; residual activity [25]: 82%; residual activity [26]: 61%; residual activity [27]: 93%; residual activity [28]: 87%; residual activity [29]: 100%; inhibition [30]: -1.95%; residual activity [31]: 100%; residual activity [32]: 100%; residual activity [33]: 86%; residual activity [34]: 100%; residual activity [35]: 99%; residual activity [36]: 90%; residual activity [37]: 84%; residual activity [38]: 79%
NS(=O)(=O)c1cc(NC(=O)Cc2ccccc2)ccc1Oc1cccc(Cl)c1 [BAY-1797],100%,100%,-8.2%,71%,73%,95%,2.32%,95%,100%,55%,58%,74%,100%,100%,88%,100%,100%,99%,89%,100%,residual activity [21]: 95%; residual activity [22]: 87%; residual activity [23]: 93%; residual activity [24]: 71%; residual activity [25]: 81%; residual activity [26]: 73%; residual activity [27]: 83%; residual activity [28]: 87%; residual activity [29]: 88%; inhibition [30]: 10.2%; residual activity [31]: 100%; residual activity [32]: 97%; residual activity [33]: 90%; residual activity [34]: 99%; residual activity [35]: 97%; residual activity [36]: 99%; residual activity [37]: 74%; residual activity [38]: 78%
